According to patent publication US20070265245A1, “S-Mirtazapine For The Treatment Of Hot Flush” (N.V. Organon, priority 2004, published 2007):

How the values were obtained:
Type in all cases: in vivo
ovariectomized rats [1] = assay: Locomotor activity of ovariectomized rats, telemetry; settings: for locomotor activity (decrease to): from the first treatment onwards, vehicle around 1.2 cpm
Procedure: (§1) The effect of the maleate salt of S-mirtazapine was measured in an animal model for hot flushes. The model is based on the observation that the drop in tail skin temperature at the transition from the rest to the active phase in rats is attenuated after ovariectomy. The locomotor activity of the rats was also measured.
(§2) Tail skin temperature of the rats was measured by use of the telemetry system from Data Sciences International (DSI), a division of Transoma Medical, Inc., USA. This system comprises implantable wireless transmitters (TA10TA-F40 W/TP), receivers (RPC-1 and RLA1020), a data exchange matrix (DEM), and a data acquisition and analysis system (DQ ART 2.2 silver version).
(§3) The S-mirtazapine maleate was dissolved in 0.9% saline with 5% mulgofen. Compound and vehicle were administered intraperitoneally. Sham placebo and ovariectomized(OVX)/placebo groups received 2 ml/kg/day saline and compound treated groups received 10, 30 or 100 mg/kg/day in a volume of 2 ml/kg/day. Here, the indicated amounts refer to the weight of the maleate salt of S-mirtazepine.
(§4) Female rats from the Crl:WU strain, weighing 225-250 g at arrival, were supplied by CPB Harlan, The Netherlands. Rats were housed individually in Macrolon™ cages (38×22×15 cm) with a sawdust bedding and “Enviro Dry™” as cage enrichment. The day after arrival the rats were ovariectomized or sham operated and the transmitter was implanted intraperitoneally under isoflurane aneasthesia. After surgery the rats were placed in a temperature controlled room (21.5±1° C.) with an adapted light/dark cycle (lights off 9:30 h a.m., lights on 7:30 h p.m.). They were allowed to recover from surgery and to adapt to the light/dark cycle for at least 2 weeks. Food and water were given ad libitum.
(§5) Treatment groups were randomized over the OVX groups. The rats were injected intraperitoneally with vehicle or S-mirtazapine maleate once a day at 11:00 a.m. for a period of 5 days. The tail skin temperature and the locomotor activity of the rats were measured every 5 minutes continuously, but the measurements between 12:00 and 02:00 pm (in which period the maximal effect of S-mirtazapine was observed) were used for calculations of the treatment effects. During this period the rats remained completely undisturbed. Before 9:30 am (the time the light turned off) the rats could be taken care of.
(§6) Body weights of the rats were determined before and after the treatment period. Data were expressed as mean ±S.E.M. unless otherwise specified. For testing statistical significance the Analysis of Variance (ANOVA) was used. The data were logarithmically transformed to normalize variations. A value of P<0.05 was considered to be significant.
Data were collected for each rat for 7 seconds every 5 minutes during two hours starting one hour after drug administration (11:00 a.m.). The mean tail skin temperature over this 2-h period was calculated for each rat. In addition, the group means were calculated together with the standard error of the mean (SEM). The tail skin temperature is expressed in degrees centigrade (°C.) and locomotor activity in counts per minutes (cpm).
The number of animals in the different test groups varied between 5-8.

ovariectomized rats [2] = assay: Tail skin temperature in ovariectomized rats (animal model for hot flushes), telemetry; settings: for restoration of the attenuation of the OVX-induced drop in tail skin temperature: summary; for TST lower than the sham operated group: from day 2 onwards
Procedure: as §1, §2, §3, §4
The left and right flank and the rear end of the back above the tail implant of the rat were shaved. The rats were anaesthetized with isoflurane (FORENE®/1-chloro-2,2,2,-trifluorethyl-difluoromethyl-ether, Abbott). The operation area was disinfected with Hibicet® (1.5% m/v chloorhexidinedigluconaat and 1.5% m/v cetrimide). The rats were bilateral ovariectomized (OVX) or sham operated. The incision made in the right flank was also used to implant the transmitter in the peritoneal cavity. When closing the abdomen the transmitter was fixed to the abdominal muscles with stitches.
On the back of the rat in height of the hips, a small incision in the skin was made and the thermistor-tipped probe was led to the back of the rat. From here the probe was brought under the skin in the tail to about 2 cm from the base of the tail. The lead was fixed with a stitch at the musculus biceps femoris. To complete the operation the skin was closed with wound clips. Immediately after surgery the rats were treated with the analgesic buprenorphine 50 μg/kg sc (Temgesic®, Schering-Plough).
as §5, §6
Data were collected for each rat for 7 seconds every 5 minutes during two hours starting one hour after drug administration (11:00 a.m.). The mean tail skin temperature over this 2-h period was calculated for each rat. […]

[3] = Body weight of treated rats before and after treatment period; settings: experiment 1, 10 mg/kg i.p., 5 days
Procedure: as §6

In the case of `CN1CCN2c3ncccc3Cc3ccccc3[C@H]2C1.O=C(O)/C=C\C(=O)O` [S-mirtazapine maleate], the locomotor activity (ovariectomized rats [1]; 30 mg/kg, summary, effect not statistically significant) is reported as “reduced”, the “locomotor activity compared to OVX placebo group” value (ovariectomized rats [1]; experiment 1, 10 mg/kg i.p.) is reported as “no significant effect” and the “locomotor activity compared to sham operated placebo group” value (ovariectomized rats [1]; experiment 1, 10 mg/kg/day i.p., day 3) is reported as “significant reduction”. The “effect on locomotor activity” value (ovariectomized rats [1]; experiment 2, 10 mg/kg/day, rest of experiment at level of placebo treated OVX rats) was “only an effect on locomotor activity after the first treatment”, the “locomotor activity at the end of the treatment period” value (ovariectomized rats [1]; experiment 2, 30 mg/kg i.p.) was “about 0.5 cpm” and the “drop in locomotor activity” value (ovariectomized rats [1]; experiment 2, 30 mg/kg i.p., after 5 days treatment) was 50%. The “locomotor activity (decrease to)” value (ovariectomized rats [1]; experiment 2, 30 mg/kg i.p.) was “about 0.5 cpm”, the “locomotor activity at the end of the treatment period” value (ovariectomized rats [1]; experiment 2, 100 mg/kg i.p.) was “increased to the level of the vehicle treated rats” and the “locomotor activity (decrease to)” value (ovariectomized rats [1]; experiment 2, 100 mg/kg i.p.) was “about 0.5 cpm”. The “locomotor activity after 5 days treatment compared to the OVX placebo group” value (ovariectomized rats [1]; experiment 2, any dose group (10, 30, 100 mg/kg)) was “No statistically significant effect”, the “restoration of the attenuation of the OVX-induced drop in tail skin temperature” value (ovariectomized rats [2]; 10 mg/kg i.p., OVX rats) was “not” and the “restoration of the attenuation of the OVX-induced drop in tail skin temperature” value (ovariectomized rats [2]; 30 mg/kg i.p., OVX rats) was “restored”. The “effect against hot flush (conclusion)” value (ovariectomized rats [2]; 30 mg/kg in rats) was “effect against hot flush”, the “effect against hot flush (conclusion)” value (ovariectomized rats [2]; 100 mg/kg in rats) was “effect against hot flush” and the “increase in TST after the first treatment day” value (ovariectomized rats [2]; experiment 1, 10 mg/kg/day i.p., OVX rats) was “approximately 2 °C”. For the same molecule, the “effect on tail skin temperature on day 5” value (ovariectomized rats [2]; experiment 1, 10 mg/kg/day i.p., day 5) was “no effect”, the “TST after the end of treatment” value (ovariectomized rats [2]; experiment 1, 10 mg/kg/day i.p., all groups returned to normal values for OVX rats) was “about 29 °C” and the “TST during the treatment period” value (ovariectomized rats [2]; experiment 1, 10 mg/kg/day i.p., compared to sham/placebo and compared to OVX/placebo at day 4) was “significantly higher level”. For the same molecule, the “tail skin temperature compared to the OVX rats after 5 consecutive days” value (ovariectomized rats [2]; experiment 2, 10 mg/kg) was “no effect”, the “increase in TST after the first treatment” value (ovariectomized rats [2]; experiment 2, 10 mg/kg/day i.p.) was 1-3 °C and the “TST during the treatment period compared to the OVX rats” value (ovariectomized rats [2]; experiment 2, 10 mg/kg/day i.p., day 2 and 3) was “significantly higher level”. For the same molecule, the “TST after end of treatment” value (ovariectomized rats [2]; experiment 2, 10 mg/kg/day i.p., returned to normal TST values of OVX rats) was 28-29 °C, the “TST after the end of treatment” value (ovariectomized rats [2]; experiment 2, 30 mg/kg i.p.) was “returned to normal values of OVX rats” and the “TST compared to the sham operated group after 5 consecutive days” value (ovariectomized rats [2]; experiment 2, 30 mg/kg i.p.) was “statistically significantly below”. For the same molecule, the “restoration of the fall in TST” value (ovariectomized rats [2]; experiment 2, 30 mg/kg i.p.) was “significantly restored”, the “tail skin temperature compared to the OVX group after 5 consecutive days” value (ovariectomized rats [2]; experiment 2, 30 mg/kg i.p.) was “significant decrease” and the “TST versus sham operated placebo group on day 5” value (ovariectomized rats [2]; experiment 2, 30 mg/kg i.p., day 5) was “statistically significantly different”. The “TST lower than the sham operated group” value (ovariectomized rats [2]; experiment 2, 30 mg/kg i.p.) was 2-4 °C, the “TST after the end of treatment” value (ovariectomized rats [2]; experiment 2, 100 mg/kg i.p.) was “stayed up to 2 days after the end of treatment at a lower level” and the “restoration of the fall in TST” value (ovariectomized rats [2]; experiment 2, 100 mg/kg i.p.) was “significantly restored”. For the same molecule, the “tail skin temperature compared to the OVX group after 5 consecutive days” value (ovariectomized rats [2]; experiment 2, 100 mg/kg i.p.) was “significant decrease”, the “TST lower than the sham operated group” value (ovariectomized rats [2]; experiment 2, 100 mg/kg i.p.) was 2-4 °C and the “effect on body weight (BW)” value [3] was “no significant effect”.
